# Measurements taken from patent US20240197891A1, “PHARMACEUTICAL COMPOSITIONS COMPRISING POH DERIVATIVES” (UNIVERSITY OF SOUTHERN CALIFORNIA, priority 2021, published 2024).
# Columns and labels:
# Format in all cases: in vivo, mouse
# IL-1β = assay: Serum IL-1β following UV exposure
# Experimental: (§1) SKH-1 hairless mice were treated with 10 mg/kg POH-LA conjugate freshly prepared daily. The POH-LA conjugate was formulated in glycerol:ethanol (90:10) while the control animals received the glycerol:ethanol vehicle only or the commercially available sunblock (Well & Good Sun Protection Wipes SPF 15). Additional test groups were treated with POH formulated in the glycerol:ethanol vehicle or linoleic acid formulated in the glycerol:ethanol vehicle. 50 μL of each formulation was placed on a area 1 cm^2 area that was exposed to the UV light. The mice were treated with their respective formulations after exposure to the UV light. In FIG. 22A, the mouse was treated with sunblock. In FIG. 22B, the mouse was treated with POH. In FIG. 22C, the mouse was treated with linoleic acid. In FIG. 22D, the mouse was treated with POH-LA conjugate. In FIG. 22D, the mouse was treated with the glycerol:ethanol vehicle only. The POH-LA conjugate, POH or linoleic acid solutions were gently spread on the skin surface and allowed to air dry. The sunblock mouse was gently wiped on the exposure area with the sunblock towelette. This exposure and treatment went on for a maximum of 10 weeks. Throughout the experimental period the animals were photographed and weighed. At the end of the experimental period the mice were photographed and euthanized, followed by skin and blood collection. Blood was analyzed for markers of inflammation and DNA recovered from the exposed area of the skin and analyzed for markers of DNA damage.
# (§2) Furthermore, blood samples were taken from each mouse 4 hours after the last cutaneous treatment. About 0.5 mL of blood was collected by cardiac puncture […]. Serum was aliquoted in Eppendorf tubes and store at −80° C. as preparation for cytokine analyses. […]
# (§3) Mice were treated with 10 mg/kg POH-LA conjugate freshly prepared daily. […] Blood was analyzed for markers of inflammation and DNA recovered from the exposed area of the skin and analyzed for markers of DNA damage.
# IL-6 = assay: Serum IL-6 following UV exposure
# Experimental: as §1, with “In FIG. 22D, the mouse was treated with the glycerol:ethanol vehicle only.” left out
# as §2, §3
# [1] = system: skin inflammation induced by asTPA; assay: asTPA-induced skin inflammation in mice; conditions: topical, 3 days pretreatment plus 7 days asTPA, glycerol:ethanol (90:10)
# Experimental: A first group of mice were pre-treated with a solution of 50 microliters (μL) of a conjugate of POH and linoleic acid (e.g., linoleoyl ester of POH) in a vehicle of a glycerol:ethanol (90:10) mixture. The POH-linoleic acid conjugate solution was applied on the hip flank of the mice for a period of 3 days. A second, control group of mice were treated solely with the glycerol:ethanol (90:10) vehicle.
# After pre-treatment, skin inflammation was induced on the first and second groups of mice by daily cutaneous application of an acetonic solution of 12-0-Tetradecanoylphorbol-13-acetate (asTPA) (which is a known irritant) to the backs of the mice over seven days. The asTPA was not applied to a further control group. To facilitate application of the asTPA, mice were anaesthetized by inhalation of isofluorane. 100 microliters of asTPA (corresponding to 20 micrograms (μg) of TPA) was then applied onto the skin of the mice. Upon evaporation of the asTPA, the mice were returned to their cages.
# During the seven-day period in which the first and second groups of mice were subjected to application of asTPA, the first group continued to receive treatment of the POH-linoleic acid conjugate and vehicle solution, and the second group continued to receive treatment of the vehicle. At the end of the seven-day period, the mice were photographed.
SMILES,IL-1β serum levels increase (IL-1β),IL-6 levels (IL-6),skin appearance where asTPA was applied [1]
"C=C(C)[C@@H]1CC=C(CO)CC1 [POH, perillyl alcohol]",8.5 ± 3.0 pg/mL,17.9 ± 2.8 pg/mL,
"C=C(C)[C@@H]1CC=C(COC(=O)CCCCCCC/C=C\C/C=C\CCCCC)CC1 [POH-LA conjugate, Octadeca-9,12-dienoic acid 4-isopropenyl-cyclohex-1-enylmethyl ester]",6.4 ± 2.5 pg/mL,15.2 ± 4.1 pg/mL,no inflammation or flaking
